pIC50: −log10 of the molar value.
What was measured:
Format in all cases: cell-based
KM12 = assay: NCI 60 panel: KM12 (Colon Cancer)
From the text: (§3) TGI means the drug concentration resulting in total growth inhibition or “cytostasis.” LC50 is the concentration of drug resulting in a 50% reduction in the measured cytosolic ATP at the end of the drug treatment as compared to that at the beginning, indicating a net loss of cells following treatment (cytotoxicity).

SK-MEL-5 = assay: NCI 60 panel: SK-MEL-5 (Melanoma)
From the text: as §3

NCI-H226 = assay: NCI 60 panel: NCI-H226 (Non-Small Cell Lung Cancer)
From the text: as §3

[1] = test system: WT cells (cloned non-cystic kidney tissue cells); assay: Concentration-response in primary cultures cloned from non-cystic kidney tissue; details: 72 hour treatment
Experimental: (§1) The concentration-response effects of Compound DBM 228, Compound DBM 308, Compound DBM 101, and Compound DBM 328 were determined in primary cultures derived as ‘clones’ from cystic versus non-cystic kidney tissue. CRC graphs, IC50 values, and the percent maximum inhibition versus lowest doses without effect were calculated with GraphPad Prism software. […] There was also a marked separation in effect between hyperproliferative PKD cells (FIG. 5A and Table 3) and WT cells (FIG. 5B and Table 4).

A498 = assay: NCI 60 panel: A498 (Renal Cancer)
From the text: as §3

HCC-2998 = assay: NCI 60 panel: HCC-2998 (Colon Cancer)
From the text: as §3

MDA-MB-231 = assay: NCI 60 panel: MDA-MB-231 (Breast Cancer)
From the text: as §3

U251MG = assay: Complementary DBM in vitro profiling: U251MG (CNS Cancer)
Experimental: The compounds described herein are effective for inhibiting cellular proliferation in hyperproliferative cell types. To study the effects of these compounds, an assay was developed to differentiate the effects of the compounds on proliferating versus confluent cells. The assay design generates a proliferating density 24 hours after seeding and provides a 3-day active cell growth/doubling window in which to gauge the anti-proliferative effect of the compounds described herein. […] In this 3-day growth window, cell number increases with daily doublings across the 72-hour period (see FIG. 1).
In each assay design, compounds were added at the 24-hour timepoint after cell seeding. The effect of the compounds, relative to vehicle control and to VelCade (a proteasome inhibitor approved in the U.S. for treating relapsed multiple myeloma and mantle cell lymphoma) as a positive control, was assessed across the 3-day growth window for proliferating cells and on an already near confluent culture of cells for the same time period. Normal cells were handled in the same manner, with some adjustment of seeding density needed in select cases. […]
Cell number at the end of the assay was determined using the CELLTITER-GLO Luminescent Cell Viability Assay (Promega; Madison, Wis.). The CELLTITER-GLO Luminescent Cell Viability Assay is a homogeneous method of determining the number of viable cells in culture based on quantitation of the ATP present, an indicator of metabolically active cells. IC50 values were calculated. […]
(§2) For a typical screening experiment to identify the compounds, cells were seeded into 96- or 384-well microtiter plates at plating densities pre-determined for each cell line to ensure drug exposure occurs during the proliferative phase well before confluency is reached. […] Values were calculated for each of these three parameters if the level of activity was reached; however, if the effect was not reached or was exceeded, the value for that parameter was expressed as greater or less than the maximum or minimum concentration tested.

UACC-257 = assay: NCI 60 panel: UACC-257 (Melanoma)
From the text: as §3

[2] = test system: hyperproliferative PKD cells (cloned polycystic kidney tissue cells); assay: Concentration-response in primary cultures cloned from cystic kidney tissue; details: hyperproliferative PKD cells, 72 hour treatment
Experimental: as §1

HCT-15 = assay: NCI 60 panel: HCT-15 (Colon Cancer)
From the text: as §3

SNB-19 = assay: NCI 60 panel: SNB-19 (CNS Cancer)
From the text: as §3

NCI-H23 = assay: NCI 60 panel: NCI-H23 (Non-Small Cell Lung Cancer)
From the text: as §3

TK-10 = assay: NCI 60 panel: TK-10 (Renal Cancer)
From the text: as §3

myeloma cells = test system: myeloma cells
Experimental: as §2, with “reached. After seeding, cells were incubated for 24 h prior to addition of experimental drugs. After 24 h, a test plate was assayed (CellTiterGlo—measurement of cytosolic ATP) to determine a baseline measurement of the cell population for each cell line at the time of drug addition. Experimental drugs were then added and cells were cultured for a 48 h drug exposure window.” for “reached.”

CCRF-CEM = assay: NCI 60 panel: CCRF-CEM (Leukemia)
From the text: as §3

HL-60 = assay: NCI 60 panel: HL-60 (Leukemia)
From the text: as §3

LOX IMVI = assay: NCI 60 panel: LOX IMVI (Melanoma)
From the text: as §3

MDA-MB-435 = assay: NCI 60 panel: MDA-MB-435 (Melanoma)
From the text: as §3

M14 = assay: NCI 60 panel: M14 (Melanoma)
From the text: as §3

MDA-MB-468 = assay: NCI 60 panel: MDA-MB-468 (Breast Cancer)
From the text: as §3

[3] = read-out: LC50 (the source's name)
[4] = myeloma cells, 48 h drug exposure

Question: `COc1ccccc1Nc1nc(-c2cc3cccc(N)c3oc2=O)cs1` [Compound DBM 228] was tested. Which GI50 (KM12) did it give?
Answer: 0.0705 µM

Question: And the TGI (KM12)?
Answer: 13.4 µM

Question: What about the CC50 (KM12; [3]) of the same compound?
Answer: > 100 µM

Question: What about the GI50 (SK-MEL-5) of the same compound?
Answer: 0.0768 µM

Question: What about the TGI (SK-MEL-5) of the same compound?
Answer: 2.3 µM

Question: And the CC50 (SK-MEL-5; [3])?
Answer: 26.8 µM

Question: And the GI50 (NCI-H226)?
Answer: 11.2 µM

Question: And the TGI (NCI-H226)?
Answer: 37.2 µM

Question: And the CC50 (NCI-H226; [3])?
Answer: > 100 µM

Question: What about the pIC50 [1] of the same compound?
Answer: < 4.00

Question: And the Max inhibition [1]?
Answer: 49%

Question: What about the GI50 (A498) of the same compound?
Answer: 0.0354 µM

Question: What about the TGI (A498) of the same compound?
Answer: 4.42 µM

Question: What about the CC50 (A498; [3]) of the same compound?
Answer: > 100 µM

Question: What about the GI50 (HCC-2998) of the same compound?
Answer: 1.05 µM

Question: And the TGI (HCC-2998)?
Answer: 16.5 µM

Question: And the CC50 (HCC-2998; [3])?
Answer: > 100 µM

Question: And the GI50 (MDA-MB-231)?
Answer: 1.37 µM

Question: And the TGI (MDA-MB-231)?
Answer: 12 µM

Question: What about the CC50 (MDA-MB-231; [3]) of the same compound?
Answer: > 100 µM

Question: And the GI50 (U251MG)?
Answer: 0.197 µM

Question: What about the TGI (U251MG) of the same compound?
Answer: >30 µM

Question: And the CC50 (U251MG; [3])?
Answer: > 30 µM

Question: And the TGI (UACC-257)?
Answer: 33.7 µM

Question: What about the CC50 (UACC-257; [3]) of the same compound?
Answer: > 100 µM

Question: What about the pIC50 [2] of the same compound?
Answer: 6.16

Question: What about the Max inhibition [2] of the same compound?
Answer: 61%

Question: What about the GI50 (HCT-15) of the same compound?
Answer: 0.128 µM

Question: What about the TGI (HCT-15) of the same compound?
Answer: 17.3 µM

Question: What about the CC50 (HCT-15; [3]) of the same compound?
Answer: > 100 µM

Question: What about the GI50 (SNB-19) of the same compound?
Answer: 0.182 µM

Question: What about the TGI (SNB-19) of the same compound?
Answer: 35 µM

Question: What about the CC50 (SNB-19; [3]) of the same compound?
Answer: > 100 µM

Question: And the GI50 (NCI-H23)?
Answer: 0.504 µM

Question: And the TGI (NCI-H23)?
Answer: 15.8 µM

Question: What about the CC50 (NCI-H23; [3]) of the same compound?
Answer: 63.1 µM

Question: And the GI50 (TK-10)?
Answer: 10 µM

Question: What about the TGI (TK-10) of the same compound?
Answer: 23.5 µM

Question: What about the CC50 (TK-10; [3]) of the same compound?
Answer: 55 µM

Question: What about the CC50 (myeloma cells) of the same compound?
Answer: > 4 µM

Question: What about the GI50 (myeloma cells; [4]) of the same compound?
Answer: 0.16 µM

Question: What about the TGI (myeloma cells; [4]) of the same compound?
Answer: 0.271 µM

Question: And the GI50 (CCRF-CEM)?
Answer: 0.177 µM

Question: What about the LC50 (50% lethal concentration) (CCRF-CEM) of the same compound?
Answer: > 100 µM

Question: And the TGI (CCRF-CEM)?
Answer: 15.4 µM

Question: What about the GI50 (HL-60) of the same compound?
Answer: 0.034 µM

Question: And the TGI (HL-60)?
Answer: 0.137 µM

Question: And the CC50 (HL-60; [3])?
Answer: 0.825 µM

Question: And the GI50 (LOX IMVI)?
Answer: 0.9 µM

Question: What about the TGI (LOX IMVI) of the same compound?
Answer: 50.8 µM

Question: And the CC50 (LOX IMVI; [3])?
Answer: > 100 µM

Question: What about the GI50 (MDA-MB-435) of the same compound?
Answer: 0.0231 µM

Question: What about the TGI (MDA-MB-435) of the same compound?
Answer: 0.0679 µM

Question: And the CC50 (MDA-MB-435; [3])?
Answer: 69.5 µM

Question: And the GI50 (M14)?
Answer: 0.0708 µM

Question: What about the CC50 (M14; [3]) of the same compound?
Answer: 49.9 µM

Question: What about the GI50 (MDA-MB-468) of the same compound?
Answer: 0.0471 µM

Question: What about the TGI (MDA-MB-468) of the same compound?
Answer: 0.8 µM

Question: What about the CC50 (MDA-MB-468; [3]) of the same compound?
Answer: 60.9 µM
